Source: US20090298814A1, “Novel salts of conjugated psychotropic drugs and processes of preparing same” (RAMOT AT TEL AVIV UNIVERISTY LTD, priority 2005, published 2009)
Structures can show the parent of a compound that is named as a salt.

Tests used:
Format in all cases: physicochemical
[1] = Chemical stability of mesylate and maleate salts by HPLC under various storage conditions; conditions: for texture and color after storage: room temperature, open to the atmosphere
[2] = Hygroscopicity of mesylate and maleate salts by Karl Fischer titration
Protocol: Water absorption and content measurements were carried out using a Karl Fischer (KF) titrator. Karl Fischer titration is a classic method in analytical chemistry that uses calometric titration to determine the moisture content of a sample, which is specific to water. The titration reaction taking place in the presence of a base and 50:50 methanol:dichloromethane as a titration solvent.
The accurately weighted samples (near 100 mg) of the tested compound were placed in the titrator to determine the amount of sample required for measuring 10-250 μg of water, and the water content was calculated accordingly.
(§1) Stability and hygroscopicity studies of the mesylate and maleate salts of the conjugate were carried out under various conditions. The hygroscopicity of the salts was determined by following the water content of the salt using the Karl Fischer (KF) titration analysis method. The chemical stability of the salts was determined by following the appearance of the degradation product perphenazine using HPLC analyses. The samples were kept at −20° C. under nitrogen, at room temperature in an open container, at room temperature in a sealed container and at 40° C. in a sealed container. The samples were tested at the end of the preparation procedure (t=0), 72 hours after the preparation time (t=72), 1 week after the preparation time (t=168) and two weeks after the preparation time (t=336).

[3] = Solubility in 1% weight/volume lactic acid solution; conditions: agitated 1 hour at room temperature
Protocol: 1.0 gram of each of the mesylate and maleate addition salts prepared as described herein was agitated in 10 ml of 1% weight/volume lactic acid solution for 1 hour at room temperature. Any solids remaining thereafter were filtered off and the filtrate was dried under vacuum until no further change in weight was detected. […] The calculated solubility obtained for the mesylate salt was more than 100 mg/ml.

[4] = Chemical stability of mesylate and maleate salts by HPLC under various storage conditions
Protocol: The chemical stability of the conjugates was determined by HPLC analyses and was measured by the relative peak areas of the substance and of at least one of its degradation products. Thus, as is further exemplified in the Examples section that follows, the chemical stability of the exemplary conjugates described above was measured during time periods that typically ranged from 1 day to 24 days, whereby the conjugates were kept in sealed or open containers, with or without nitrogen atmosphere, and at a temperature range of from −20° C. to 40° C.
HPLC analyses were performed on a Water 2695 Separations Module, using a Luna C18 (2) 50 mm×4.6 mm×3 um column, a 5 μl injection volume and a 2487 dual wavelength detector under the following instrumental conditions: Mobile phase A: 0.1% formic acid; Mobile phase B: acetonitrile; Flow rate: 0.5 ml per minute; Mobile phase gradient: 0.0 minutes 90% A, 10% B, 14.0 minutes 20% A, 80% B, 15.0 minutes 90% A, 10% B and 20.0 minutes 90% A, 10% B; Run time: 20 minutes; Detection: UV at 254 nm; Column temperature: 40° C.
as §1

[5] = Open container kept at room temperature, t = 0 hours
[6] = Open container kept at room temperature, t = 72 hours
[7] = Open container kept at room temperature, t = 168 hours
[8] = Open container kept at room temperature, t = 336 hours
[9] = Sealed container kept at 40° C., t = 0 hours
[10] = Sealed container kept at 40° C., t = 72 hours
[11] = Sealed container kept at 40° C., t = 168 hours
[12] = Sealed container kept at 40° C., t = 336 hours
[13] = Sealed container kept at room temperature, t = 0 hours
[14] = Sealed container kept at room temperature, t = 72 hours
[15] = Sealed container kept at room temperature, t = 168 hours
[16] = Sealed container kept at room temperature, t = 336 hours
[17] = Sealed container kept at −20° C. under N2, t = 0 hours
[18] = Sealed container kept at −20° C. under N2, t = 72 hours
[19] = Sealed container kept at −20° C. under N2, t = 168 hours
[20] = Sealed container kept at −20° C. under N2, t = 336 hours
[21] = open container at room temperature, five weeks (about 840 hours)

In the case of `NCCCC(=O)OCCN1CCN(CCCN2c3ccccc3Sc3ccc(Cl)cc32)CC1` [mesylate addition salt], the “texture and color after storage” value ([1]; listed as mesylate salt) is reported as “become sticky in texture and changed color from pink to black”, the Water content % [2, 5] is reported as 0.6% and the Water content % [2, 6] is reported as 1.2%. The Water content % [2, 7] was 4.0%, the Water content % [2, 8] was 4.8% and the Water content % [2, 9] was 0.6%. The Water content % [2, 10] was 0.8%, the Water content % [2, 11] was 1.2% and the Water content % [2, 12] was 0.9%. For the same molecule, the Water content % [2, 13] was 0.6%, the Water content % [2, 14] was 0.8% and the Water content % [2, 15] was 1.3%. For the same molecule, the Water content % [2, 16] was 1.5%, the Water content % [2, 17] was 0.6% and the Water content % [2, 18] was 0.6%. For the same molecule, the Water content % [2, 19] was 0.7%, the Water content % [2, 20] was 0.6% and the calculated solubility ([3]; listed as mesylate salt) was “more than 100 mg/ml”. It also gave a Salt peak area [4, 5] of 97.91%, a perphenazine peak area [4, 5] of 1.39% and a Salt peak area [4, 6] of 90.30%. The perphenazine peak area [4, 6] was 8.53%, the Salt peak area [4, 7] was 81.40% and the perphenazine peak area [4, 7] was 17.68%. For the same molecule, the Salt peak area [4, 8] was 61.97%, the “Unidentified impurity peak area” value [4, 8] was 0.05% and the perphenazine peak area [4, 8] was 35.74%. The Salt peak area [4, 9] was 97.91%, the perphenazine peak area [4, 9] was 1.39% and the Salt peak area [4, 10] was 91.83%. For the same molecule, the perphenazine peak area [4, 10] was 7.33%, the Salt peak area [4, 11] was 91.91% and the perphenazine peak area [4, 11] was 7.56%. The Salt peak area [4, 12] was 87.17%, the perphenazine peak area [4, 12] was 11.63% and the Salt peak area [4, 13] was 97.91%. The perphenazine peak area [4, 13] was 1.39%, the Salt peak area [4, 14] was 95.84% and the perphenazine peak area [4, 14] was 3.17%. The Salt peak area [4, 15] was 94.98%, the perphenazine peak area [4, 15] was 4.52% and the Salt peak area [4, 16] was 91.67%. It also gave a perphenazine peak area [4, 16] of 6.88%, a Salt peak area [4, 17] of 97.91% and a perphenazine peak area [4, 17] of 1.39%. It also gave a Salt peak area [4, 18] of 98.08%, a perphenazine peak area [4, 18] of 1.34% and a Salt peak area [4, 19] of 98.22%. It also gave a perphenazine peak area [4, 19] of 1.26%, a Salt peak area [4, 20] of 98.24% and a perphenazine peak area [4, 20] of 1.21%. For the same molecule, the stability in words ([4]; sealed container at −20° C. under nitrogen atmosphere) was “mostly stable”.

With `NCCCC(=O)OCCN1CCN(CCCN2c3ccccc3Sc3ccc(Cl)cc32)CC1` [maleate addition salt] the “purity (HPLC)” value [1, 21] was 94.98%, the “texture and color after storage” value ([1]; listed as maleate salt) was “slightly discolored, changing from yellow to light orange but stayed as a free flowing solid” and the Water content % [2, 5] was 0.3%. For the same molecule, the Water content % [2, 6] was 0.7%, the Water content % [2, 7] was 0.8% and the Water content % [2, 8] was 0.8%. It also gave a Water content % [2, 9] of 0.3%, a Water content % [2, 10] of 0.5% and a Water content % [2, 11] of 0.7%. It also gave a Water content % [2, 12] of 0.7%, a Water content % [2, 13] of 0.3% and a Water content % [2, 14] of 0.5%. The Water content % [2, 15] was 0.8%, the Water content % [2, 16] was 0.5% and the Water content % [2, 17] was 0.3%. For the same molecule, the Water content % [2, 18] was 0.3%, the Water content % [2, 19] was 0.3% and the Water content % [2, 20] was 0.5%. It also gave a water content [2, 21] of 0.91%, a calculated solubility ([3]; listed as maleate salt) of 48 mg/mL and a Salt peak area [4, 5] of 96.54%. The “Unidentified impurity peak area” value [4, 5] was 1.05%, the perphenazine peak area [4, 5] was 1.44% and the Salt peak area [4, 6] was 96.43%. The “Unidentified impurity peak area” value [4, 6] was 0.98%, the perphenazine peak area [4, 6] was 1.44% and the Salt peak area [4, 7] was 96.82%. The “Unidentified impurity peak area” value [4, 7] was 0.94%, the perphenazine peak area [4, 7] was 1.46% and the Salt peak area [4, 8] was 96.00%. For the same molecule, the “Unidentified impurity peak area” value [4, 8] was 0.93%, the perphenazine peak area [4, 8] was 1.43% and the Salt peak area [4, 9] was 96.54%. For the same molecule, the “Unidentified impurity peak area” value [4, 9] was 1.05%, the perphenazine peak area [4, 9] was 1.44% and the Salt peak area [4, 10] was 94.96%. The “Unidentified impurity peak area” value [4, 10] was 2.16%, the perphenazine peak area [4, 10] was 1.52% and the Salt peak area [4, 11] was 94.32%. The “Unidentified impurity peak area” value [4, 11] was 2.46%, the perphenazine peak area [4, 11] was 1.65% and the Salt peak area [4, 12] was 92.93%. For the same molecule, the “Unidentified impurity peak area” value [4, 12] was 2.79%, the perphenazine peak area [4, 12] was 1.80% and the Salt peak area [4, 13] was 96.54%. For the same molecule, the “Unidentified impurity peak area” value [4, 13] was 1.05%, the perphenazine peak area [4, 13] was 1.44% and the Salt peak area [4, 14] was 96.24%. The “Unidentified impurity peak area” value [4, 14] was 1.09%, the perphenazine peak area [4, 14] was 1.43% and the Salt peak area [4, 15] was 96.86%. The “Unidentified impurity peak area” value [4, 15] was 1.11%, the perphenazine peak area [4, 15] was 1.40% and the Salt peak area [4, 16] was 95.69%. The “Unidentified impurity peak area” value [4, 16] was 1.24%, the perphenazine peak area [4, 16] was 1.47% and the Salt peak area [4, 17] was 96.54%. For the same molecule, the “Unidentified impurity peak area” value [4, 17] was 1.05%, the perphenazine peak area [4, 17] was 1.44% and the Salt peak area [4, 18] was 96.79%. The “Unidentified impurity peak area” value [4, 18] was 0.99%, the perphenazine peak area [4, 18] was 1.38% and the Salt peak area [4, 19] was 96.85%. The “Unidentified impurity peak area” value [4, 19] was 0.98%, the perphenazine peak area [4, 19] was 1.39% and the Salt peak area [4, 20] was 96.69%. The “Unidentified impurity peak area” value [4, 20] was 1.03%, the perphenazine peak area [4, 20] was 1.39% and the stability in words ([4]; all storage conditions of Table 8) was “stable in all sample forms”. For the same molecule, the “stability and hygroscopicity in words” value ([4]; as compared to the HCl and mesylate salt) was “more stable and less hygroscopic” and the “perphenazine (HPLC)” value [4, 21] was 1.46%.
